From publication PMC10338470, “Phase 1 study of GSK3368715, a type I PRMT inhibitor, in patients with advanced solid tumors” (British Journal of Cancer, 2023)
Where “and” joins values, the source holds several entries; their conditions need not be identical. Equal values may be shown once. Marks after values point to notes of the source that are not given here.

Experiments:
[1] = Phase 1 safety: adverse events, dose-limiting toxicities, thromboembolic events (NCI-CTCAE v5.0); assay type: in vivo, human
Procedure: The study was approved by the ethics committee at every participating institution and was conducted according to the recommendations of Good Clinical Practice and the Declaration of Helsinki. All patients provided written informed consent to participate in the study.
Part 1 of this study included a dose-escalation cohort to assess the incidence of dose-limiting toxicities (DLTs) and adverse events, and a PK/PD cohort to characterize the PK/PD profile of GSK3368715 (Fig. 1). A food-effect cohort and a second study phase (part 2) to assess the preliminary clinical activity of GSK3368715 were also planned.
For each dosing group in the dose-escalation cohort, GSK3368715 was administered on day 1, no treatment was administered on days 2 and 3 (to characterize single-dose PK), and daily dosing continued thereafter until disease progression, unacceptable toxicity, or withdrawal of consent. Study treatment was dosed at approximately the same time of day (±4 h), with no food for 1 h before and 2 h after each dose.
The study resumed under a protocol amendment with the PK/PD cohort starting at a daily dose of 100 mg, and dose escalation was limited to 50-mg increments. The incidence and frequency of TEEs were added to the DLT criteria (grade 2 TEE requiring systemic anticoagulation or ≥grade 3 TEE) with extended monitoring to 8 weeks or until study discontinuation, whichever occurred first. Further, eligibility criteria were modified to exclude patients at high risk of thrombosis (ie, Khorana score ≥3 or prior medical history of TEE). Patients with a Khorana score of 2 were considered for prophylactic anticoagulation if deemed appropriate by the investigator. Khorana score is a risk assessment model based on clinical and laboratory parameters to classify the risk for chemotherapy-associated venous thromboembolism (Supplemental Table 2).
Adverse events were coded using the standard MedDRA groupings and graded according to NCI-CTCAE version 5.0. Clinical chemistry, urinalysis, and coagulation tests were performed predose on days 1, 8, 15, 22, and weekly thereafter. Tumor imaging occurred every 8 weeks until week 33, and then every 16 weeks thereafter.
The Neuenschwander Continual Reassessment Method dose-escalation design has been previously described. […] Additionally, following the protocol amendment, dose escalations were limited to 50-mg increments.
Adverse events and DLTs were summarized descriptively by dose cohort. Pharmacokinetic parameters of GSK3368715 and its metabolites (GSK3963583 and GSK3983164) were estimated in the PK/PD population (all participants for whom a PK sample was obtained) using a noncompartmental analysis model (WinNonlin version 8.1) and summarized descriptively. Best overall response as per RECIST 1.1 was summarized descriptively by dose cohort. Levels of tumor cell and plasma pharmacodynamic biomarkers were also summarized descriptively.

[2] = system: ADMA-R225-hnRNP-A1 in tumor biopsies; assay: Tumor biopsy ADMA-R225-hnRNP-A1 by LC-MS (fresh frozen); assay type: in vivo, human; conditions: 100-mg dose level, day 15
Procedure: Tumor cell and plasma target engagement PD biomarkers were assessed in the dose-escalation cohort on days 1, 8, 15, and 22. In the PK/PD cohort, urine for PK and metabolite profiling was collected postdose on day 1 and through 48 h postdose on day 2, and for 24 h postdose on day 15. Participants underwent an on-treatment tumor biopsy on day 15. Asymmetric arginine 225 (R225) methylation of heterogeneous nuclear ribonucleoprotein A1 (hnRNP-A1) was identified as a target engagement PD of type I PRMT inhibition; treatment with GSK3368715 results in the reduction of asymmetric dimethylarginine 225 (ADMA-R225) on hnRNP-A1 protein in cancer cell lines and peripheral blood mononuclear cells (PBMCs). Noto et al. describe in detail the identification of hnRNP-A1 as a pharmacodynamic biomarker of type I PRMT inhibition, and the development of novel methodologies to accurately and precisely quantitate changes in the levels of ADMA on hnRNP-A1 in both blood and tumor compartments. Levels of ADMA-R225-hnRNP-A1 were measured in fresh frozen and formalin-fixed paired biopsies by liquid chromatography-mass spectrometry (LC-MS) and immunohistochemistry (IHC).

CCOCC1(COCC)CCC(c2[nH]ncc2CN(C)CCNC)CC1 [GSK3368715]
Grade 3 TEE events [1]: 8 | AE: Anemia ([1]; 50 mg (n = 3)): 1 (33) n (%) | AE: Diarrhea ([1]; 50 mg (n = 3)): 1 (33) n (%) | AE: Dyspnea ([1]; 50 mg (n = 3)): 1 (33) n (%) | AE: Fatigue ([1]; 50 mg (n = 3)): 1 (33) n (%) | AE: Nausea ([1]; 50 mg (n = 3)): 2 (67) n (%) | AE: Neutrophil count decreased ([1]; 50 mg (n = 3)): 0 n (%) | AE: Pulmonary embolism ([1]; 50 mg (n = 3)): 0 n (%) | AE: Pyrexia ([1]; 50 mg (n = 3)): 1 (33) n (%) | AE: Vomiting ([1]; 50 mg (n = 3)): 2 (67) n (%) | Any AE (all AEs and all grades) ([1]; 50 mg (n = 3)): 3 (100) n (%) | GSK3368715-related Grade 3 AE: Aortic thrombosis ([1]; 50 mg (n = 3)): 0 n (%) | GSK3368715-related Grade 3 AE: Atrial fibrillation ([1]; 50 mg (n = 3)): 0 n (%) | GSK3368715-related Grade 3 AE: Deep vein thrombosis ([1]; 50 mg (n = 3)): 0 n (%) | GSK3368715-related Grade 3 AE: Neutrophil count decreased ([1]; 50 mg (n = 3)): 0 n (%) | GSK3368715-related Grade 4 AE: Lymphocyte count decreased ([1]; 50 mg (n = 3)): 0 n (%) | GSK3368715-related Grade 4 AE: Platelet count decreased ([1]; 50 mg (n = 3)): 0 n (%) | Dose-limiting toxicities (DLTs) ([1]; 50 mg dose group): no DLTs | Thromboembolic event grade: Portal vein thrombosis ([1]; 50 mg, patient with cholangiocarcinoma): 2 | AE: Anemia ([1]; 100 mg (n = 16)): 6 (38)^b n (%) | AE: Diarrhea ([1]; 100 mg (n = 16)): 5 (31)^b n (%) | AE: Dyspnea ([1]; 100 mg (n = 16)): 2 (13) n (%) | AE: Fatigue ([1]; 100 mg (n = 16)): 6 (38) n (%) | AE: Nausea ([1]; 100 mg (n = 16)): 3 (19) n (%) | AE: Neutrophil count decreased ([1]; 100 mg (n = 16)): 1 (6)^d,e n (%) | AE: Pulmonary embolism ([1]; 100 mg (n = 16)): 2 (13)^c n (%) | AE: Pyrexia ([1]; 100 mg (n = 16)): 5 (31) n (%) | AE: Vomiting ([1]; 100 mg (n = 16)): 2 (13) n (%) | Any AE (all AEs and all grades) ([1]; 100 mg (n = 16)): 15 (94) n (%) | GSK3368715-related Grade 3 AE: Aortic thrombosis ([1]; 100 mg (n = 16)): 0 n (%) | GSK3368715-related Grade 3 AE: Atrial fibrillation ([1]; 100 mg (n = 16)): 0 n (%) | GSK3368715-related Grade 3 AE: Deep vein thrombosis ([1]; 100 mg (n = 16)): 0 n (%) | GSK3368715-related Grade 3 AE: Neutrophil count decreased ([1]; 100 mg (n = 16)): 1 (6)^e n (%) | GSK3368715-related Grade 4 AE: Lymphocyte count decreased ([1]; 100 mg (n = 16)): 0 n (%) | GSK3368715-related Grade 4 AE: Platelet count decreased ([1]; 100 mg (n = 16)): 0 n (%) | Thromboembolic event grade: Pulmonary embolism ([1]; 100 mg, patient with head and neck squamous cell carcinoma, study drug withdrawn): 2 | Thromboembolic event grade: Pulmonary embolism ([1]; 100 mg, patient with pancreas adenocarcinoma): 3 | Grade 5 pulmonary embolism, number ([1]; 200 mg): 1 | AE: Anemia ([1]; 200 mg (n = 12)): 2 (17) n (%) | AE: Diarrhea ([1]; 200 mg (n = 12)): 1 (8) n (%) | AE: Dyspnea ([1]; 200 mg (n = 12)): 1 (8) n (%) | AE: Fatigue ([1]; 200 mg (n = 12)): 1 (8) n (%) | AE: Nausea ([1]; 200 mg (n = 12)): 4 (33) n (%) | AE: Neutrophil count decreased ([1]; 200 mg (n = 12)): 3 (25) n (%) | AE: Pyrexia ([1]; 200 mg (n = 12)): 0 n (%) | AE: Vomiting ([1]; 200 mg (n = 12)): 3 (25) n (%) | Any AE (all AEs and all grades) ([1]; 200 mg (n = 12)): 12 (100) n (%) | GSK3368715-related Grade 3 AE: Aortic thrombosis ([1]; 200 mg (n = 12)): 1 (8)^b,g n (%) | GSK3368715-related Grade 3 AE: Atrial fibrillation ([1]; 200 mg (n = 12)): 1 (8)^g n (%) | GSK3368715-related Grade 3 AE: Deep vein thrombosis ([1]; 200 mg (n = 12)): 1 (8) n (%) | GSK3368715-related Grade 3 AE: Neutrophil count decreased ([1]; 200 mg (n = 12)): 0 n (%) | GSK3368715-related Grade 4 AE: Lymphocyte count decreased ([1]; 200 mg (n = 12)): 1 (8)^b n (%) | GSK3368715-related Grade 4 AE: Platelet count decreased ([1]; 200 mg (n = 12)): 1 (8)^b,g n (%) | Thromboembolic event grade: Pulmonary embolism ([1]; 200 mg, patient with epithelioid hemangioendothelioma): 3 | Thromboembolic event grade: Pulmonary embolism ([1]; 200 mg, patient with mucoepidermoid carcinoma of parotid): 3 | Thromboembolic event grade: Pulmonary embolism ([1]; 200 mg, patient with pancreas adenocarcinoma mucinous, fatal): 5 | Participants with grade 2 portal vein thrombosis ([1]; 50-mg dose group): 1 | Dose-limiting toxicities (DLTs) ([1]; 100-mg dose group): no DLTs | Patients with grade 3 decrease in neutrophil count leading to dose reduction ([1]; 100-mg dose group): 1 patient | Pulmonary embolisms reported (1 grade 2, 1 grade 3) ([1]; 100-mg dose group): 2 | Grade 3 aortic thrombosis events ([1]; 200-mg dose group): 1 | Grade 3 deep vein thrombosis events ([1]; 200-mg dose group): 1 | Grade 3 portal vein thrombosis events ([1]; 200-mg dose group): 2 | Grade 3 pulmonary embolism events ([1]; 200-mg dose group): 4 | Patients with grade 3 aortic thrombosis ([1]; 200-mg dose group): 1 patient | Patients with grade 3 atrial fibrillation ([1]; 200-mg dose group): 1 patient | Patients with grade 3 deep vein thrombosis ([1]; 200-mg dose group): 1 patient | Patients with grade 4 decrease in lymphocyte count ([1]; 200-mg dose group): 1 patient | Patients with grade 4 decrease in platelet count ([1]; 200-mg dose group): 2 patients | Patients with dose-limiting toxicities (DLTs) ([1]; 200-mg dose group (n = 12), aortic thrombosis, atrial fibrillation, decrease in platelet count): 25% | Fatal (grade 5) SAEs ([1]; 200-mg dose group, PE and intracranial hemorrhage): 2 | AE: Anemia ([1]; Total (N = 31)): 9 [29%] n (%) and 9 (29) n (%) | AE: Diarrhea ([1]; Total (N = 31)): 7 (23) n (%) | AE: Dyspnea ([1]; Total (N = 31)): 4 (13) n (%) | AE: Fatigue ([1]; Total (N = 31)): 8 [26%] n (%) and 8 (26) n (%) | AE: Nausea ([1]; Total (N = 31)): 9 [29%] n (%) and 9 (29) n (%) | AE: Neutrophil count decreased ([1]; Total (N = 31)): 4 (13) n (%) | AE: Pyrexia ([1]; Total (N = 31)): 6 (19) n (%) | AE: Vomiting ([1]; Total (N = 31)): 7 (23) n (%) | Any AE (all AEs and all grades) ([1]; Total (N = 31)): 30 [97%] n (%) and 30 (97) n (%) | GSK3368715-related AEs by maximum grade: Grade 3 ([1]; Total (N = 31)): 4 (13) n (%) | GSK3368715-related AEs by maximum grade: Grade 4 ([1]; Total (N = 31)): 2 (6) n (%) | Number of grade 3 TEEs ([1]; across dose groups (abstract)): 8 | Patients experiencing thromboembolic events (TEEs) ([1]; across dose groups, N = 31, 95% confidence interval 14–48%): 29% | Number of thromboembolic events (TEEs) ([1]; across dose groups, in 9 participants): 12 | Changes from baseline for clinical chemistry, hematology, urinalysis, or echocardiograms (ECGs) ([1]; all dose groups): No clinically significant trends | Patients who discontinued due to a DLT ([1]; all dose groups, N = 31): 3 | Patients who discontinued due to an AE ([1]; all dose groups, N = 31): 5 patients | Patients with ≥1 grade 3 or grade 4 treatment emergent AEs ([1]; all dose groups, N = 31): 52% | Patients with ≥1 serious AE (SAE) ([1]; all dose groups, N = 31): 39% | Target engagement in tumor biopsies [2]: modest and variable | Mean reduction of ADMA-hnRNP-A1 in tumor biopsies by LC-MS (SE 9.6) ([2]; in 4/6 patients): 18.5%
